Laboratory results: ChEMBL document CHEMBL1134190, “Synthesis of substituted 4(Z)-(methoxyimino)pentyl-1-piperidines as dual NK1/NK2 inhibitors” (Bioorg Med Chem Lett, 2001)

What was measured:
Substance-P receptor = Substance-P receptor (Homo sapiens, UniProt P25103); test: Binding affinity towards NK1 receptor
Substance-K receptor = molecular target: T1, Substance-K receptor (Homo sapiens, UniProt P21452); test: Binding affinity towards NK2 receptor
T1 sequence (P21452 whole entry): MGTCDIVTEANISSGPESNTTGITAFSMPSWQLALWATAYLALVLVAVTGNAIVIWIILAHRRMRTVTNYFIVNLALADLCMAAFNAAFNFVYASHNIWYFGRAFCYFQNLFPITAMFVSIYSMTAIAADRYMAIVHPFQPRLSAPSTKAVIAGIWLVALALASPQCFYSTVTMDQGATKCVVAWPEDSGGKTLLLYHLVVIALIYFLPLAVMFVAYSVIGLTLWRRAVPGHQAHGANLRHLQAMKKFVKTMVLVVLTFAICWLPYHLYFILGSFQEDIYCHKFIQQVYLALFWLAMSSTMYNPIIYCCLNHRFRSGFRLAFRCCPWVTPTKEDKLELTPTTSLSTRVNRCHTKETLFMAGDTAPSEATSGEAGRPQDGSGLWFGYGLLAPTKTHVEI

Substance-P receptor, sequence (P25103 whole entry): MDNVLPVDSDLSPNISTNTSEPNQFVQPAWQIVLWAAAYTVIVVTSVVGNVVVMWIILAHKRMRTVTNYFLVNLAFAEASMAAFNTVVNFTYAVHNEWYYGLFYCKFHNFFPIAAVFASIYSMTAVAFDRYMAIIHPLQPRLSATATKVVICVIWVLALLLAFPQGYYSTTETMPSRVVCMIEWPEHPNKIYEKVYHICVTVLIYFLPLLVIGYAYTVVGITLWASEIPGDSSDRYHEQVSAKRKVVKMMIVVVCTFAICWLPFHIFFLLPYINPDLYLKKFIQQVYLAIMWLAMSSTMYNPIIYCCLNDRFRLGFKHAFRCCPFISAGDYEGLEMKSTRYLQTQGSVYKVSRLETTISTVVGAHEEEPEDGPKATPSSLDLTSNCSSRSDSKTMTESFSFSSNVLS

CO/N=C(\COCc1cc(C(F)(F)F)cc(C(F)(F)F)c1)C(CCN1CCC(CN2CCCC(CC3CC3)C2=O)CC1)c1ccc(Cl)c(Cl)c1 (stereo not drawn)
Ki (Substance-P receptor): 14 nM | Ki (Substance-K receptor): 26 nM

CO/N=C(\COCc1cc(C(F)(F)F)cc(C(F)(F)F)c1)C(CCN1CCC(CN2CCCC(CC(O)CO)C2=O)CC1)c1ccc(Cl)c(Cl)c1 (stereo not drawn)
Ki (Substance-P receptor): 7 nM | Ki (Substance-K receptor): 16 nM

CO/N=C(\COCc1cc(C(F)(F)F)cc(C(F)(F)F)c1)C(CCN1CCC(CN2CCCC(OC(=O)NC(C)C)C2)CC1)c1ccc(Cl)c(Cl)c1 (stereo not drawn)
Ki (Substance-P receptor): 17 nM | Ki (Substance-K receptor): 33 nM

CO/N=C(\COCc1cc(C(F)(F)F)cc(C(F)(F)F)c1)C(CCN1CCC(CN2CCOCC2)CC1)c1ccc(Cl)c(Cl)c1 (stereo not drawn)
Ki (Substance-P receptor): 14 nM | Ki (Substance-K receptor): 39 nM

C=CCC1CCCN(CC2CCN(CCC(/C(COCc3cc(C(F)(F)F)cc(C(F)(F)F)c3)=N/OC)c3ccc(Cl)c(Cl)c3)CC2)C1=O (stereo not drawn)
Ki (Substance-P receptor): 13 nM | Ki (Substance-K receptor): 58 nM

CO/N=C(\COCc1cc(C(F)(F)F)cc(C(F)(F)F)c1)C(CCN1CCC(CN2CCCCC2=S)CC1)c1ccc(Cl)c(Cl)c1 (stereo not drawn)
Ki (Substance-P receptor): 20 nM | Ki (Substance-K receptor): 23 nM

CO/N=C(\COCc1cc(C(F)(F)F)cc(C(F)(F)F)c1)C(CCN1CCC(N2CCCCC2=O)CC1)c1ccc(Cl)c(Cl)c1 (stereo not drawn)
Ki (Substance-P receptor): 18 nM | Ki (Substance-K receptor): 4 nM

CCOC(=O)C1CCCN(C2CCN(CCC(/C(COCc3cc(C(F)(F)F)cc(C(F)(F)F)c3)=N/OC)c3ccc(Cl)c(Cl)c3)CC2)C1 (stereo not drawn)
Ki (Substance-P receptor): 117 nM | Ki (Substance-K receptor): 20 nM

CCOC(=O)C1CCCN(CC2CCN(CCC(/C(COCc3cc(C(F)(F)F)cc(C(F)(F)F)c3)=N/OC)c3ccc(Cl)c(Cl)c3)CC2)C1 (stereo not drawn)
Ki (Substance-P receptor): 16 nM | Ki (Substance-K receptor): 28 nM

CO/N=C(\COCc1cc(C(F)(F)F)cc(C(F)(F)F)c1)C(CCN1CCC(N2CCCC2)CC1)c1ccc(Cl)c(Cl)c1 (stereo not drawn)
Ki (Substance-P receptor): 36 nM | Ki (Substance-K receptor): 195 nM

CO/N=C(\COCc1cc(C(F)(F)F)cc(C(F)(F)F)c1)C(CCN1CCC(CN2CCCC(CO)C2)CC1)c1ccc(Cl)c(Cl)c1 (stereo not drawn)
Ki (Substance-P receptor): 50 nM | Ki (Substance-K receptor): 39 nM

CO/N=C(\COCc1cc(C(F)(F)F)cc(C(F)(F)F)c1)C(CCN1CCC(CN2CCCCC2CCO)CC1)c1ccc(Cl)c(Cl)c1 (stereo not drawn)
Ki (Substance-P receptor): 13 nM | Ki (Substance-K receptor): 14 nM

CO/N=C(\COCc1cc(C(F)(F)F)cc(C(F)(F)F)c1)C(CCN1CCC(CN2CCCC(Cc3ccccc3)C2=O)CC1)c1ccc(Cl)c(Cl)c1 (stereo not drawn)
Ki (Substance-P receptor): 69 nM | Ki (Substance-K receptor): 91 nM

CO/N=C(\COCc1cc(C(F)(F)F)cc(C(F)(F)F)c1)C(CCN1CCC(N2CCCCC2CO)CC1)c1ccc(Cl)c(Cl)c1 (stereo not drawn)
Ki (Substance-P receptor): 14 nM | Ki (Substance-K receptor): 15 nM

CO/N=C(\COCc1cc(C(F)(F)F)cc(C(F)(F)F)c1)C(CCN1CCC(N2CCC(O)C2)CC1)c1ccc(Cl)c(Cl)c1 (stereo not drawn)
Ki (Substance-P receptor): 4 nM | Ki (Substance-K receptor): 16 nM

CO/N=C(\COCc1cc(C(F)(F)F)cc(C(F)(F)F)c1)C(CCN1CCC(NC(=O)C2CCCCC2)CC1)c1ccc(Cl)c(Cl)c1 (stereo not drawn)
Ki (Substance-P receptor): 44 nM | Ki (Substance-K receptor): 146 nM

CO/N=C(\COCc1cc(C(F)(F)F)cc(C(F)(F)F)c1)C(CCN1CCC(NC(=O)c2ccccc2)CC1)c1ccc(Cl)c(Cl)c1 (stereo not drawn)
Ki (Substance-P receptor): 18 nM | Ki (Substance-K receptor): 144 nM

CO/N=C(\COCc1cc(C(F)(F)F)cc(C(F)(F)F)c1)C(CCN1CCC(CNC(=O)c2ccccc2)CC1)c1ccc(Cl)c(Cl)c1 (stereo not drawn)
Ki (Substance-P receptor): 112 nM | Ki (Substance-K receptor): 137 nM

CO/N=C(\COCc1cc(C(F)(F)F)cc(C(F)(F)F)c1)C(CCN1CCC(CNC2(CO)CCCC2)CC1)c1ccc(Cl)c(Cl)c1 (stereo not drawn)
Ki (Substance-P receptor): 24 nM | Ki (Substance-K receptor): 16 nM

CO/N=C(\COCc1cc(C(F)(F)F)cc(C(F)(F)F)c1)C(CCN1CCC(N2CCCC2=O)CC1)c1ccc(Cl)c(Cl)c1 (stereo not drawn)
Ki (Substance-P receptor): 9 nM | Ki (Substance-K receptor): 7 nM

CO/N=C(\COCc1cc(C(F)(F)F)cc(C(F)(F)F)c1)C(CCN1CCC(N2CCC(OC(=O)NC(C)C)C2)CC1)c1ccc(Cl)c(Cl)c1 (stereo not drawn)
Ki (Substance-P receptor): 19 nM | Ki (Substance-K receptor): 67 nM

CO/N=C(\COCc1cc(C(F)(F)F)cc(C(F)(F)F)c1)C(CCN1CCC(CN2CCCC(O)C2)CC1)c1ccc(Cl)c(Cl)c1 (stereo not drawn)
Ki (Substance-P receptor): 38 nM | Ki (Substance-K receptor): 47 nM

CO/N=C(\COCc1cc(C(F)(F)F)cc(C(F)(F)F)c1)C(CCN1CCC(CN2CCCCC2)CC1)c1ccc(Cl)c(Cl)c1 (stereo not drawn)
Ki (Substance-P receptor): 36 nM | Ki (Substance-K receptor): 26 nM

CO/N=C(\COCc1cc(C(F)(F)F)cc(C(F)(F)F)c1)C(CCN1CCC(N2CCCC(C(N)=O)C2)CC1)c1ccc(Cl)c(Cl)c1 (stereo not drawn)
Ki (Substance-P receptor): 13 nM | Ki (Substance-K receptor): 11 nM

CO/N=C(\COCc1cc(C(F)(F)F)cc(C(F)(F)F)c1)C(CCN1CCC(C(=O)N2CCCC2)CC1)c1ccc(Cl)c(Cl)c1 (stereo not drawn)
Ki (Substance-P receptor): 6 nM | Ki (Substance-K receptor): 59 nM

CO/N=C(\COCc1cc(C(F)(F)F)cc(C(F)(F)F)c1)C(CCN1CCC(CN2CCCC2=O)CC1)c1ccc(Cl)c(Cl)c1 (stereo not drawn)
Ki (Substance-P receptor): 8 nM | Ki (Substance-K receptor): 21 nM

CO/N=C(\COCc1cc(C(F)(F)F)cc(C(F)(F)F)c1)C(CCN1CCC(CN2CCCCC2=O)CC1)c1ccc(Cl)c(Cl)c1 (stereo not drawn)
Ki (Substance-P receptor): 10 nM | Ki (Substance-K receptor): 12 nM

CO/N=C(\COCc1cc(C(F)(F)F)cc(C(F)(F)F)c1)C(CCN1CCC(N2CCCC2=S)CC1)c1ccc(Cl)c(Cl)c1 (stereo not drawn)
Ki (Substance-P receptor): 16 nM | Ki (Substance-K receptor): 23 nM

CO/N=C(\COCc1cc(C(F)(F)F)cc(C(F)(F)F)c1)C(CCN1CCC(CN2CCCCC2CO)CC1)c1ccc(Cl)c(Cl)c1 (stereo not drawn)
Ki (Substance-P receptor): 20 nM | Ki (Substance-K receptor): 53 nM

CO/N=C(\COCc1cc(C(F)(F)F)cc(C(F)(F)F)c1)C(CCN1CCC(N2CCC[C@H]2C(N)=O)CC1)c1ccc(Cl)c(Cl)c1 (stereo partly drawn)
Ki (Substance-P receptor): 13 nM | Ki (Substance-K receptor): 11 nM

CO/N=C(\COCc1cc(C(F)(F)F)cc(C(F)(F)F)c1)C(CCN1CCC(C(N)=O)CC1)c1ccc(Cl)c(Cl)c1 (stereo not drawn)
Ki (Substance-K receptor): 67 nM

CO/N=C(\COCc1cc(C(F)(F)F)cc(C(F)(F)F)c1)C(CCN1CCC(CN2CCCC(C(N)=O)C2)CC1)c1ccc(Cl)c(Cl)c1 (stereo not drawn)
Ki (Substance-P receptor): 25 nM | Ki (Substance-K receptor): 27 nM
